This is an account of results in PubChem BioAssay AID344 (DTP/NCI, 2004).

The subject of the assay is mice, LPC-1 plasma cell tumor ip, median survival T/C. Put plainly: NCI In Vivo Anticancer Drug Screen. Data for tumor model Lieberman Plasma Cell No. 1 (LPC-1) (intraperitoneal) in unknown mice. As to conditions: endpoint: median survival time, higher = longer survival. As for the experimental part: The antitumor activity of compounds was measured in mice bearing transplantable tumors. Survival or tumor size were measured and the results are expressed as the measurement made in the treated group (T) divided by the measurement made in the vehicle treated control group (C). The tumor model used in this assay is Lieberman Plasma Cell No. 1 (LPC-1) (intraperitoneal) in unknown mice

Setting [1] is: dose: 3.0 mg/kg/injection, schedule: Q01DX028 (sc), vehicle: water.
Where [2] appears, read: dose: 14.0 mg/kg/injection, schedule: Q01DX028 (sc), vehicle: water.
The mark [3] stands for this setting: dose: 14.0 mg/kg/injection, schedule: Q01DX028 (sc), vehicle: saline.
[4] abbreviates: dose: 75.0 mg/kg/injection, schedule: Q01DX028 (sc), vehicle: carboxymethylcellulose (CMC).
Where [5] appears, read: dose: 3.0 mg/kg/injection, schedule: Q01DX028 (sc), vehicle: saline.
The mark [6] stands for this setting: dose: 5.0 mg/kg/injection, schedule: Q01DX028 (sc), vehicle: saline.

SMILES strings stand for the structures. Where “and” joins values, the source holds several entries; their conditions need not be identical. Identical values can stand only once. Inconclusive results and toxic doses are left out.

For `CNNCc1ccc(C(=O)NC(N)=O)cc1`, the T/C is 100 % of control (dose: 50.0 mg/kg/injection, schedule: Q01DX028 (sc), vehicle: saline); 105 % of control (dose: 100.0 mg/kg/injection, schedule: Q01DX028 (sc), vehicle: saline); 102 % of control (dose: 200.0 mg/kg/injection, schedule: Q01DX028 (sc), vehicle: saline).
Consider `N=[N+]=CC(=O)OCC(N)C(=O)O` (stereo unspecified), for which the T/C is 89 % of control (dose: 1.8 mg/kg/injection, schedule: Q01DX028 (sc), vehicle: water); 102 % of control under setting [1]; 97 % of control under setting [2].
Regarding `CN(C)c1ccc(/C=C/c2ccnc3ccccc23)cc1`, the T/C was 95 % of control (dose: 2.0 mg/kg/injection, schedule: Q01DX028 (sc), vehicle: carboxymethylcellulose (CMC)); 100 % of control (dose: 4.0 mg/kg/injection, schedule: Q01DX028 (sc), vehicle: carboxymethylcellulose (CMC)); 95 % of control (dose: 8.0 mg/kg/injection, schedule: Q01DX028 (sc), vehicle: carboxymethylcellulose (CMC)); 92 % of control (dose: 16.0 mg/kg/injection, schedule: Q01DX028 (sc), vehicle: carboxymethylcellulose (CMC)); 105 % of control (dose: 23.0 mg/kg/injection, schedule: Q01DX028 (sc), vehicle: carboxymethylcellulose (CMC)); 100 % of control (dose: 32.0 mg/kg/injection, schedule: Q01DX028 (sc), vehicle: carboxymethylcellulose (CMC)). For the same compound, the T/C reads like this: (dose: 39.0 mg/kg/injection, schedule: Q01DX028 (sc), vehicle: carboxymethylcellulose (CMC)) 97 % of control; (dose: 65.0 mg/kg/injection, schedule: Q01DX028 (sc), vehicle: carboxymethylcellulose (CMC)) 100 % of control; (dose: 108.0 mg/kg/injection, schedule: Q01DX028 (sc), vehicle: carboxymethylcellulose (CMC)) 95 % of control; (dose: 180.0 mg/kg/injection, schedule: Q01DX028 (sc), vehicle: carboxymethylcellulose (CMC)) 95 % of control.
Regarding `CN(N=O)C(N)=O`, the T/C is, setting by setting: (dose: 8.4 mg/kg/injection, schedule: Q01DX028 (sc), vehicle: saline) 114 % of control; under setting [3], 150 % of control; (dose: 39.0 mg/kg/injection, schedule: Q01DX028 (sc), vehicle: saline) 116 % of control; (dose: 65.0 mg/kg/injection, schedule: Q01DX028 (sc), vehicle: saline) 100 % of control.
With `CCOC(=O)C(Cc1ccc(N(CCCl)CCCl)cc1)NC=O` (stereo unspecified), the T/C is 176 % of control (dose: 18.7 mg/kg/injection, schedule: Q01DX028 (sc), vehicle: carboxymethylcellulose (CMC)); 184 % of control under setting [4]; 115 % of control (dose: 150.0 mg/kg/injection, schedule: Q01DX028 (sc), vehicle: carboxymethylcellulose (CMC)); 92 % of control (dose: 300.0 mg/kg/injection, schedule: Q01DX028 (sc), vehicle: carboxymethylcellulose (CMC)).
Regarding `Nc1nc(=S)c2ncn(C3OC(CO)C(O)C3O)c2[nH]1` (stereo unspecified), the T/C by setting is: under setting [1], 121 % of control; (dose: 5.0 mg/kg/injection, schedule: Q01DX028 (sc), vehicle: water) 110 % of control; (dose: 8.4 mg/kg/injection, schedule: Q01DX028 (sc), vehicle: water) 110 % of control; under setting [2], 100 % of control; (dose: 23.0 mg/kg/injection, schedule: Q01DX028 (sc), vehicle: water) 100 % of control.
As for `CS(=O)(=O)OCCN(CCOS(C)(=O)=O)c1ccc(C=O)cc1`, the T/C under setting [5] was 160 % of control; the T/C under setting [6] was 166 % of control and 192 % of control; the T/C (dose: 8.3 mg/kg/injection, schedule: Q01DX028 (sc), vehicle: saline) is 226 % of control; the T/C (dose: 10.0 mg/kg/injection, schedule: Q01DX028 (sc), vehicle: saline) is 202 % of control; the T/C under setting [3] is 250 % of control; the T/C (dose: 20.0 mg/kg/injection, schedule: Q01DX028 (sc), vehicle: saline) was 261 % of control. For the same compound, under “dose: 40.0 mg/kg/injection, schedule: Q01DX028 (sc), vehicle: saline”, the T/C is 122 % of control.
For the compound `Cn1cnc([N+](=O)[O-])c1Sc1ncnc2nc[nH]c12`, the T/C is 102 % of control (dose: 25.0 mg/kg/injection, schedule: Q01DX028 (sc), vehicle: carboxymethylcellulose (CMC)); 111 % of control and 114 % of control (dose: 50.0 mg/kg/injection, schedule: Q01DX028 (sc), vehicle: carboxymethylcellulose (CMC)); 108 % of control under setting [4]; 108 % of control (dose: 100.0 mg/kg/injection, schedule: Q01DX028 (sc), vehicle: carboxymethylcellulose (CMC)).
`OC(CBr)C(O)C(O)C(O)CBr` (stereo unspecified): the T/C is, setting by setting: (dose: 125.0 mg/kg/injection, schedule: Q01DX028 (sc), vehicle: carboxymethylcellulose (CMC)) 94 % of control and 102 % of control and 100 % of control; (dose: 500.0 mg/kg/injection, schedule: Q01DX028 (sc), vehicle: carboxymethylcellulose (CMC)) 89 % of control and 115 % of control.
For `CN(Cc1cnc2nc(N)nc(N)c2n1)c1ccc(C(=O)N[C@@H](CCC(=O)O)C(=O)O)cc1`, the T/C was 105 % of control (dose: 0.12 mg/kg/injection, schedule: Q01DX028 (sc), vehicle: other) and 98 % of control (dose: 1.0 mg/kg/injection, schedule: Q01DX028 (sc), vehicle: other).
In the case of `O=C(O)CCCc1ccc(N(CCCl)CCCl)cc1`, the T/C by setting is: (dose: 1.0 mg/kg/injection, schedule: Q01DX007 (sc), vehicle: saline) 93 % of control; (dose: 2.0 mg/kg/injection, schedule: Q01DX007 (sc), vehicle: saline) 109 % of control; (dose: 3.0 mg/kg/injection, schedule: Q01DX028 (sc), vehicle: methylcellulose (MC)) 95 % of control; (dose: 4.0 mg/kg/injection, schedule: Q01DX007 (sc), vehicle: saline) 118 % of control; (dose: 5.0 mg/kg/injection, schedule: Q01DX028 (sc), vehicle: methylcellulose (MC)) 97 % of control; (dose: 8.4 mg/kg/injection, schedule: Q01DX028 (sc), vehicle: methylcellulose (MC)) 100 % of control. For the same compound, the T/C runs as follows: (dose: 14.0 mg/kg/injection, schedule: Q01DX028 (sc), vehicle: methylcellulose (MC)) 113 % of control; (dose: 16.0 mg/kg/injection, schedule: Q01DX007 (sc), vehicle: saline) 112 % of control.
Turning to `CS(=O)(=O)OCCCCCOS(C)(=O)=O`, the T/C reads like this: (dose: 10.0 mg/kg/injection, schedule: Q01DX028 (sc), vehicle: water) 107 % of control; (dose: 40.0 mg/kg/injection, schedule: Q01DX028 (sc), vehicle: water) 107 % of control; (dose: 44.0 mg/kg/injection, schedule: Q01DX028 (sc), vehicle: carboxymethylcellulose (CMC)) 120 % of control.
Consider `C/C(=N/N=C(N)N)c1ccc(NC(=O)Nc2ccc(/C(C)=N/N=C(N)N)cc2)cc1`, for which the T/C (dose: 53.0 mg/kg/injection, schedule: Q01DX028 (sc), vehicle: carboxymethylcellulose (CMC)) was 97 % of control; the T/C (dose: 88.0 mg/kg/injection, schedule: Q01DX028 (sc), vehicle: carboxymethylcellulose (CMC)) was 92 % of control; the T/C (dose: 147.0 mg/kg/injection, schedule: Q01DX028 (sc), vehicle: carboxymethylcellulose (CMC)) was 94 % of control; the T/C (dose: 245.0 mg/kg/injection, schedule: Q01DX028 (sc), vehicle: carboxymethylcellulose (CMC)) was 97 % of control.
For `CN(C)c1nc(N(C)C)nc(N(C)C)n1`, the T/C by setting is: (dose: 50.0 mg/kg/injection, schedule: Q01DX009 (ip), vehicle: olive oil, sesame oil, peanut oil) 92 % of control; (dose: 100.0 mg/kg/injection, schedule: Q01DX009 (ip), vehicle: other) 122 % of control; (dose: 200.0 mg/kg/injection, schedule: Q01DX009 (ip), vehicle: other) 110 % of control; (dose: 400.0 mg/kg/injection, schedule: Q01DX009 (ip), vehicle: other) 106 % of control.
With `CCOC(N)=O`, the T/C by setting is: (dose: 128.0 mg/kg/injection, schedule: Q01DX028 (sc), vehicle: other) 98 % of control; (dose: 400.0 mg/kg/injection, schedule: Q01DX028 (sc), vehicle: saline) 210 % of control; (dose: 512.0 mg/kg/injection, schedule: Q01DX028 (sc), vehicle: other) 175 % of control.
As for `O=NN(CCCl)C(=O)NCCCl`, the T/C runs as follows: (dose: 0.65 mg/kg/injection, schedule: Q01DX028 (sc), vehicle: saline) 109 % of control; (dose: 1.08 mg/kg/injection, schedule: Q01DX028 (sc), vehicle: saline) 107 % of control; (dose: 2.4 mg/kg/injection, schedule: Q01DX028 (sc), vehicle: saline) 157 % of control; under setting [5], 157 % of control and 185 % of control; under setting [6], 195 % of control and 202 % of control.
